The text below walks through data of US20150272939A1, “Identification of Small Molecule Inhibitors of Jumonji AT-Rich Interactive Domain 1A (JARID1A) and 1B (JARID1B) Histone Demethylase” (Yale University, priority 2012, published 2015).

“And” between values parts separate entries of the source, which are not always exact repeats. Identical values can stand only once. “Also recorded” adds a separate entry of the source. Like-named read-outs stand apart in the source and are kept apart here.

The subject of one experiment is UACC-812 cells. The experiment is described as follows: WST-1 cell proliferation assay. To be noted: 10 μM, 72 hrs. Format: cell-based, human. The protocol:
(§1) The colorimetric assay (WST-1 reagent) from Roche (11644807001) was performed in 96 well white clear bottom plates (Costar, 3610). 1,000 cells were seeded per well (in quadruplicate) overnight, and PBIT was added to the cells to the indicated concentration for 72 hrs. 0.01% DMSO was included as the control. The WST-1 reagent was added (5 μl per well) for 4 hrs, and OD 440 nm absorbance (which reflects the number of viable cells) was measured with the BioTek Synergy Mx Platereader.
On the technique in general: Formazan colour is commonly taken as a measure of viable cells.

Another experiment relates to MCF7 cells. The experiment is described as follows: WST-1 cell proliferation assay. The experiment is classed as cell-based, human. To be noted: 10 μM, 72 hrs. The protocol: as §1
In the next experiment the test system is MCF10A cells. Nature of the experiment: WST-1 cell proliferation assay. Particulars: 10 μM, 72 hrs. The experiment is classed as cell-based, human. As to the method: as §1
The target in another experiment is T1, JARID1C (Homo sapiens, UniProt P41229).
T1 construct: FLAG (N); made in house; host or cells: Sf21 insect cells (baculovirus)
The experiment is described as follows: FLAG-JARID1C histone demethylase assay with AlphaScreen detection. Format: biochemical. As to the method:
(§2) Histone demethylase assays were performed in 384 well white plates (Corning 3574). Demethylase buffer conditions for FLAG-JARID1B were as follows: 10 μM α-KG, 100 μM ascorbate, 50 μM (NH4)2Fe(SO4)2, 50 mM Hepes (pH 7.5), 0.01% (v/v) Tween 20, and 0.1% (w/v) bovine serum albumin. The demethylase reactions included 64 nM bio-H3K4me3 peptide alone or in the presence of 4 nM FLAG-JARID1B enzyme in a 10 μl reaction at 25° C. for 30 minutes. As a positive control, 64 nM bio-H3K4me2 peptide was assayed in the absence of enzyme. Assay conditions for FLAG-JARID1C is the same as for FLAG-JARID1B except that 20 nM enzyme was used. For FLAG-JARID1A, the demethylase buffer was similar to FLAG-JARID1B, except that 125 μM α-KG and 13 nM FLAG-JARID1A enzyme were used. The His-FLAG-UTX and FLAG-JMJD3 demethylase assays also employed the same buffer conditions as for FLAG-JARID1B, with 64 nM bio-H3K27me3 peptide assayed with or without 25 nM His-FLAG-UTX enzyme or 50 nM FLAG-JMJD3 (BPS Bioscience, 50115), and 64 nM bio-H3K27me2 peptide as a positive control. JARID1A, JARID1C, UTX, and JMJD3 histone demethylase assays proceeded at 37° C. for 1 hour.
(§3) The AlphaScreen General IgG (Protein A) detection kit was obtained from PerkinElmer. Demethylated H3K4 products were detected using AlphaScreen antibody/bead mix containing 7.5 mM ethylenediaminetetraacetic acid (EDTA) and 0.15 μg/ml anti-H3K4me1 antibody in a final volume of 20 μl. For detection of demethylated H3K27 products, the AlphaScreen antibody/bead mix containing 7.5 mM EDTA and 0.15 μg/ml anti-H3K27me2 antibody in a final volume of 20 μl. The luminescence signal was measured using the Envision (PerkinElmer) or Pherastar (BMG Labtech) Platereaders.
In general terms: Bead proximity is the source of the signal in Alpha formats.

The target of the next experiment is T2, JARID1B (Homo sapiens, UniProt Q9UGL1).
T2 construct: The FLAG tagged full length JARID1B enzyme was expressed in Sf21 insect cells using FLAG-JARID1B baculoviruses; FLAG (N); made in house; host or cells: Sf21 insect cells (baculovirus)
T2 sequence (Q9UGL1 whole entry): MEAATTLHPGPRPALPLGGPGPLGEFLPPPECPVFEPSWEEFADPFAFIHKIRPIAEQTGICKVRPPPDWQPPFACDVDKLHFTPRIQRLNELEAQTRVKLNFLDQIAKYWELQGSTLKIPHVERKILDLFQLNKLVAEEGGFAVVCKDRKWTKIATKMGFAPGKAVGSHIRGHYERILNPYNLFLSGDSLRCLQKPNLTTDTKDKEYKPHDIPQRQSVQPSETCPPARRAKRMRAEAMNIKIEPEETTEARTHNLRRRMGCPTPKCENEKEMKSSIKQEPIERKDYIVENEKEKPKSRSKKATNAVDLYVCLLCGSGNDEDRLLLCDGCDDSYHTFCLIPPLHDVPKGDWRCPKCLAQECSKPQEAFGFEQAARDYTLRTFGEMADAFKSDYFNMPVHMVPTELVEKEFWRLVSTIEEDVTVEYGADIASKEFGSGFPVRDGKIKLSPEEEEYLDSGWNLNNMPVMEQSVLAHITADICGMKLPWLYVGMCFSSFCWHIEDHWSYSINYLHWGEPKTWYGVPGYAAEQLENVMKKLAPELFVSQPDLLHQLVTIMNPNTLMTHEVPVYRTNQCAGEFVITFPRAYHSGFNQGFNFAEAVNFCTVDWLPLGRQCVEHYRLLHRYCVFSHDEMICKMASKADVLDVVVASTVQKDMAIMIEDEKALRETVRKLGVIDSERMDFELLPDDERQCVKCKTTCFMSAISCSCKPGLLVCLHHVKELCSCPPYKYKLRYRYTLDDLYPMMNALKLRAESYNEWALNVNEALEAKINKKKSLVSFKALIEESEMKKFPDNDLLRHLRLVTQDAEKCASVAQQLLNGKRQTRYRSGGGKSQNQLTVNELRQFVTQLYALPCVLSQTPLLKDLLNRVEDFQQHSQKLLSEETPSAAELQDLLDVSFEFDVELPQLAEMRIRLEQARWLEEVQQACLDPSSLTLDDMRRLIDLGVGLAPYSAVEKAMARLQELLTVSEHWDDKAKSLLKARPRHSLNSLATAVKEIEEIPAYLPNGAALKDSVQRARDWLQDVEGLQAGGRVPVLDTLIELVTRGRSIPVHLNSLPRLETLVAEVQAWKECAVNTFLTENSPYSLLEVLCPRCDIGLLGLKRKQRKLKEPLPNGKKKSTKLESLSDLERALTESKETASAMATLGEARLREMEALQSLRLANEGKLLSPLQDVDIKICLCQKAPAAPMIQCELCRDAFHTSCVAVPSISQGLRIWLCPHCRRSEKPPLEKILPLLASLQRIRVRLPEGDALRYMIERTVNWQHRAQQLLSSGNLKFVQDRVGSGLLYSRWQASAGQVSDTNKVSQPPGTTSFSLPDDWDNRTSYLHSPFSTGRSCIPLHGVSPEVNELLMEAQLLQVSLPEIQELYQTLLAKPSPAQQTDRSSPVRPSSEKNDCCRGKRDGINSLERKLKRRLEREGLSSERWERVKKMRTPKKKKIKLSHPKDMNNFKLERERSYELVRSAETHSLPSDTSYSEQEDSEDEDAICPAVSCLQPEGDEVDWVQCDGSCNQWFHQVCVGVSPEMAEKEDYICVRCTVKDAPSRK
Nature of the experiment: FLAG-JARID1B histone demethylase assay with AlphaScreen detection (HTS and dose response).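 Also: FLAG-tagged JARID1B at 4 nM acting on a biotinylated H3K4me3 peptide, demethylation read by AlphaScreen luminescence, with hits checked against bio-H3K4me2 without enzyme.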 Format: biochemical.

Experiment [1] has as its system SKBR3-R cells (trastuzumab resistant). The experiment is described as follows: WST-1 cell proliferation assay. Format: cell-based. Particulars: 30 μM.
In experiment [2] the test system is 1445 mouse melanoma cells. The experiment is described as follows: WST-1 cell proliferation assay. Particulars: 0, 10 and 30 μM. Format: cell-based. As to the method:
as §1
(§4) A panel of mouse and human melanoma cells was treated with 0, 10 and 30 μM PBIT and their proliferation rates were assessed using WST-1 assays.

A further experiment has as its target T3, JMJD3 (Homo sapiens, UniProt O15054).
T3 construct: FLAG (N); purchased BPS Bioscience 50115
The experiment is described as follows: FLAG-JMJD3 H3K27me3 demethylase assay with AlphaScreen detection. The experiment is classed as biochemical. Particulars: compound 10 μM, 64 nM bio-H3K27me3 peptide. The protocol: as §2, with “The His-FLAG-UTX and FLAG-JMJD3 demethylase assays also employed the same buffer conditions as for FLAG-JARID1B, with 64 nM bio-H3K27me3 peptide assayed with or without 25 nM His-FLAG-UTX enzyme or 50 nM FLAG-JMJD3 (BPS Bioscience, 50115), and 64 nM bio-H3K27me2 peptide as a positive control. JARID1A, JARID1C, UTX, and JMJD3 histone demethylase assays proceeded at 37° C. for 1 hour.” left out
(§5) The AlphaScreen General IgG (Protein A) detection kit was obtained from PerkinElmer. Demethylated H3K4 products were detected using AlphaScreen antibody/bead mix containing 7.5 mM ethylenediaminetetraacetic acid (EDTA) and 0.15 μg/ml anti-H3K4me1 antibody in a final volume of 20 μl. […] The luminescence signal was measured using the Envision (PerkinElmer) or Pherastar (BMG Labtech) Platereaders.

For another experiment, the system named is YURIF melanoma cells. The experiment is described as follows: WST-1 cell proliferation assay. Format: cell-based, human. To be noted: 0, 10 and 30 μM. The protocol: as §1, §4
The test system of the next experiment is YUAME melanoma cells. The experiment is described as follows: WST-1 cell proliferation assay. Format: cell-based, human. To be noted: 0, 10 and 30 μM. As to the method: as §1, §4
Another experiment deals with YULAC melanoma cells. The experiment is described as follows: WST-1 cell proliferation assay. The experiment is classed as cell-based, human. To be noted: 0, 10 and 30 μM. The protocol:
as §1, §4

A further experiment has as its target T4, UTX (Homo sapiens, UniProt O15550).
T4 construct: His (N); FLAG (N); made in house; host or cells: Sf21 insect cells (baculovirus)
The experiment is described as follows: His-FLAG-UTX H3K27me3 demethylase assay with AlphaScreen detection. The experiment is classed as biochemical. To be noted: compound 10 μM, 64 nM bio-H3K27me3 peptide. The protocol: as §2, with “The His-FLAG-UTX and FLAG-JMJD3 demethylase assays also employed the same buffer conditions as for FLAG-JARID1B, with 64 nM bio-H3K27me3 peptide assayed with or without 25 nM His-FLAG-UTX enzyme or 50 nM FLAG-JMJD3 (BPS Bioscience, 50115), and 64 nM bio-H3K27me2 peptide as a positive control. JARID1A, JARID1C, UTX, and JMJD3 histone demethylase assays proceeded at 37° C. for 1 hour.” left out
as §5

In a further experiment the target is T5, JARID1A (Homo sapiens, UniProt P29375).
T5 construct: the high-throughput screen of the invention utilizes full length JARID1A or JARID1B; FLAG (N); made in house; host or cells: Sf21 insect cells (baculovirus)
T5 sequence (P29375 whole entry): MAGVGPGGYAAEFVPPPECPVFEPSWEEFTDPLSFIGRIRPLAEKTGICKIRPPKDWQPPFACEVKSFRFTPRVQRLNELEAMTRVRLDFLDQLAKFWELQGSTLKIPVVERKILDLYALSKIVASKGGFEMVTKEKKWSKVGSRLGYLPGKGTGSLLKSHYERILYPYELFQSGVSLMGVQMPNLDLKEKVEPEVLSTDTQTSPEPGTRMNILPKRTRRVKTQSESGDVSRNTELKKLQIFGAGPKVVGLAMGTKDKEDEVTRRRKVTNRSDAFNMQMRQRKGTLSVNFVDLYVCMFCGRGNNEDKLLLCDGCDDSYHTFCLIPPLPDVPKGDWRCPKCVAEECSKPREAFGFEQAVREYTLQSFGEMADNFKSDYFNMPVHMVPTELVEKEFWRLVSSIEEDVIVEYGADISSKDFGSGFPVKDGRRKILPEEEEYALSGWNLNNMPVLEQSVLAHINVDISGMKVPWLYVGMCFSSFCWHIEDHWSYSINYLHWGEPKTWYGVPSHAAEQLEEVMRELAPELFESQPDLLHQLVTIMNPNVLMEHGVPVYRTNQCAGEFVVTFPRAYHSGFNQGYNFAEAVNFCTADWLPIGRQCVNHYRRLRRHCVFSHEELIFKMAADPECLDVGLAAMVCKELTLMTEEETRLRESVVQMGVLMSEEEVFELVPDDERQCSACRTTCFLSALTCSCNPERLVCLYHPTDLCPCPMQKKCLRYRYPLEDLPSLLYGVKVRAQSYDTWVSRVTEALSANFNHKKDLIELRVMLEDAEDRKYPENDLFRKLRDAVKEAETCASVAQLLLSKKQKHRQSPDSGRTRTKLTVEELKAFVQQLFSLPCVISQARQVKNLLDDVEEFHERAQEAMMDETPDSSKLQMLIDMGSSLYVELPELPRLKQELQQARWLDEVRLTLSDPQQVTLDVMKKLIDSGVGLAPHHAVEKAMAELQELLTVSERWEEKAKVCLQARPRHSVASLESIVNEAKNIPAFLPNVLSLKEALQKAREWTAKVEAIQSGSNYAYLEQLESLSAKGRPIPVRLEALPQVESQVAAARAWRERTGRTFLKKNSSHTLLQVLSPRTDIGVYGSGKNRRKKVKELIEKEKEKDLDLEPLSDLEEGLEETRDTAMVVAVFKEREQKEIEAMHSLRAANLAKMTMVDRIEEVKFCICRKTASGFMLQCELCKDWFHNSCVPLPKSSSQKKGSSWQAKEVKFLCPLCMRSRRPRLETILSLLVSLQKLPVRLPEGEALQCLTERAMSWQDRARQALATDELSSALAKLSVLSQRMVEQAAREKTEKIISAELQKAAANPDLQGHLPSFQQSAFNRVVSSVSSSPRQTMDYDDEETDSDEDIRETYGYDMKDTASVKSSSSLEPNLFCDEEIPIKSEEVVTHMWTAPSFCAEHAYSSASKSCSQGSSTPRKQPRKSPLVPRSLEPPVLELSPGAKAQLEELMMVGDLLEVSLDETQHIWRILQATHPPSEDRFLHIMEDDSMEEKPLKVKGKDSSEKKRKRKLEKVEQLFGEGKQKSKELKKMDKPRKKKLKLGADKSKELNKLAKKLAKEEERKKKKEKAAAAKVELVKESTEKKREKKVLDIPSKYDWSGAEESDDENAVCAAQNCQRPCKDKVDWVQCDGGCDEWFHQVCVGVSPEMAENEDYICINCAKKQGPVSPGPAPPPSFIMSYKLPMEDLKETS
The experiment is described as follows: FLAG-JARID1A histone demethylase assay with AlphaScreen detection (HTS and dose response). Format: biochemical. The protocol: as §2, §3
FLAG-JARID1A was screened against 9,600 compounds. These compound libraries were from the Yale Center for Molecular Discovery. The libraries screened include the MicroSource Gen-Plus, MicroSource Pure Natural Products, NIH Clinical Collection, Enzo Epigenetics, and ChemBridge MW-Set libraries. Compounds dissolved in dimethyl sulfoxide (DMSO) were pintooled into a 384 well plate containing bio-H3K4me3 peptide in demethylase buffer to a final concentration of 20 μM. The reactions were initiated by the addition of 13 nM FLAG-JARID1A, and detected as described above. To eliminate the false positive hits, a counterscreen was performed against bio-H3K4me2 in the absence of enzyme.

Setting [3] is: compound 10 μM, 64 nM bio-H3K4me3 peptide.

Broadly, the IC50 is the concentration at which inhibition is half-maximal.

T4 sequence (O15550 whole entry): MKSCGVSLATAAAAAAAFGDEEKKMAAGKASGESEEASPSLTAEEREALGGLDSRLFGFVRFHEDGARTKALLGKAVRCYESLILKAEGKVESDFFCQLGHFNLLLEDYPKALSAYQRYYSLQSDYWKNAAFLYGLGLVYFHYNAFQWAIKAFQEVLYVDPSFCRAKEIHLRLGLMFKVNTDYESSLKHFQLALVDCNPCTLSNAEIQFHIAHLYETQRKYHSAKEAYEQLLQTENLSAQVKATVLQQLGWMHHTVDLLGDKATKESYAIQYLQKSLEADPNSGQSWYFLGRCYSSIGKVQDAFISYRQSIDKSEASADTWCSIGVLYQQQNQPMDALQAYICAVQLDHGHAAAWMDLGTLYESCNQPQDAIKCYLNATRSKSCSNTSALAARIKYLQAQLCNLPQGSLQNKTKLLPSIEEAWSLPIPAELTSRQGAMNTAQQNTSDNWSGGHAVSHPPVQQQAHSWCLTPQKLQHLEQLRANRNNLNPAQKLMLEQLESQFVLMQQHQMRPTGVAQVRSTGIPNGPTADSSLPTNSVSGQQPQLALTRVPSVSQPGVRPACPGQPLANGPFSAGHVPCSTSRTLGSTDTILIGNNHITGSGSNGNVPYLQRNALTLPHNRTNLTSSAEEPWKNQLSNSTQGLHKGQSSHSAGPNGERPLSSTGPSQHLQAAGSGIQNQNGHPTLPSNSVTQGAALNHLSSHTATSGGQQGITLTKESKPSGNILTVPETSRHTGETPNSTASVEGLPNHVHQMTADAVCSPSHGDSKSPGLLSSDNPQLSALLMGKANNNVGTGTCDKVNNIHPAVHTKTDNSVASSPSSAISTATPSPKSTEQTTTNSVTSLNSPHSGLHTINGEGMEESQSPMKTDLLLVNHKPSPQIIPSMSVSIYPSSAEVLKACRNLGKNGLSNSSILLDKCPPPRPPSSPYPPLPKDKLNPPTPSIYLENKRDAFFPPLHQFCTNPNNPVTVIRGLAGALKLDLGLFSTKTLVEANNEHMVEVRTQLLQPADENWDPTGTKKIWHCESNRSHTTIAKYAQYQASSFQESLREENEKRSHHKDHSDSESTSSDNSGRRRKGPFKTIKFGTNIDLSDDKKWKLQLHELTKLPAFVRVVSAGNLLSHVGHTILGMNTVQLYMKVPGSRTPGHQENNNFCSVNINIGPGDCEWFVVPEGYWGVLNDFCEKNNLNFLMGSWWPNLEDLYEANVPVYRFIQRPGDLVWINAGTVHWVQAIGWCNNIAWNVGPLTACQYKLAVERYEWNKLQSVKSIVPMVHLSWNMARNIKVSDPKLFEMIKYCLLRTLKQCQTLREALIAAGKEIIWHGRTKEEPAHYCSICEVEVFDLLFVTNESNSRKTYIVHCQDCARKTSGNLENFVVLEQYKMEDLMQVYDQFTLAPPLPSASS

For `Cc1ccc(-n2sc3ccccc3c2=O)cc1` [PBIT, 2-4(4-methylphenyl)-1,2-benzisothiazol-3(2H)-one], the “cell proliferation (WST-1)” value in the experiment with UACC-812 cells is given as “killed most”; in the experiment with MCF7 cells it was “did not inhibit growth; also recorded: minimal toxicity”; in the experiment with MCF10A cells, “minimal toxicity”; in experiment [1] it was “killed most”. At JARID1C (setting [3]), the JARID1C demethylase activity entry was “inhibited”. Further, the IC50 was 4.9 µM at JARID1C (dose response, read-out: IC50 against JARID1C); around 3 µM on JARID1B (Fe (II) concentration not stated, read-out: IC50 against JARID1B); 3.17 µM at JARID1B (dose response at 15 μM (low) Fe (II), read-out: IC50 (μM) low Fe (II)); 2.78 µM at JARID1B (dose response at 50 μM (high) Fe (II), read-out: IC50 (μM) high Fe (II)); 6 µM and ~6 µM on JARID1A (dose response, 50 μM Fe (II), read-out: IC50 against JARID1A). For the same compound, on JARID1B, the “inhibition of JARID1B (maximum)” value is “up to 95%”. Further, the JARID1B demethylase activity entry on JARID1B (setting [3]) is reported as “inhibited”. For the same compound, the “sensitivity of proliferation to treatment (WST-1)” value in experiment [2] is reported as “most sensitive”; in the experiment on YURIF melanoma cells it was “least sensitive”; with YUAME melanoma cells, “sensitive”; with YULAC melanoma cells, “sensitive”. In addition, at JMJD3, the JMJD3 demethylase activity result is on record as “minimal effect; also recorded: did not inhibit”. Further, on UTX, the UTX demethylase activity result was “minimal effect; also recorded: did not inhibit”. Moreover, the JARID1A demethylase activity result on JARID1A (setting [3]) was “inhibited”.
